Data set [1] deals with A549 human lung cancer cells. In words: Combined variation of rAd-MET and SeMet, percentage of surviving cells. It counts as cell-based. As to the method:
The experiments described in Examples 2 and 3 were performed on A549 human lung cancer cells using varying concentrations of SeMet from 0-40 μM and of virus rAd-MET titer of 0-8×10^5 pfu using rAd as a control. Percentage of surviving cells was again used as an index of efficacy.

Data set [2] relates to A549 cells. Put plainly: Combined effect of SeMet with BCNU, cell survival. In kind it is cell-based, human. The following applies: A549 transfected with rAd-MET, 20% FBS. As to the method: A549 cells that had been transfected with rAd-MET were cultured in RPMI with 20% FBS with and without 8 μM SeMet. In each case, duplicate samples were cultured without BCNU and in the presence of 300 μM BCNU. Cell survival was determined […]. With no treatment, 100% of the cells survived; in the presence of SeMet alone, 80% of the cells survived. In the absence of SeMet, but in the presence of BCNU, 55% cell survival was obtained; in the presence of 8 μM SeMet and 300 μM BCNU, less than 10% of the cells survived. Thus, SeMet dramatically enhances the effect of BCNU.

For the next data set, the system named is human tumor cell lines. In words: MTT assay, summary statements over all tumor cell lines. It counts as cell-based. The following applies: virtually all cell lines. As to the method: (§1) Cells (4×10^3) of various tumor lines were seeded onto 96-well plates. After 24 hours, serial dilutions of the methioninase expressing vector (rAd-MET) or a control vector containing no methioninase encoding nucleotide sequence (rAd) were added to the wells with and without 20 μM of selenomethionine (SeMet) (20 μM). After incubating the plates for three (3) days, the medium was replaced with 0.5 mg/ml MTT for two (2) hours and analyzed using a microplate reader (BioRad), in a standard MTT assay. Results were recorded as percentage of surviving cells.
The cell lines tested were human cancer cell lines OVCAR-8 (ovarian cancer), A549 and EKVX (lung cancer), Hep-2 (head and neck cancer), MIA PaCa-2 and BxPC-3 (pancreatic cancer), human rhabdomyosarcoma cell line A204 and human prostate cell line PC-3. The results with respect to the OVCAR-8 cell line and cell lines A204, and PC-3 are shown in FIGS. 2, 3 and 4 in X/Y graphs; FIG. 5 is a bar graph of the results with respect to the A549 cell line.
The cell lines were also evaluated for their response to varying concentrations of SeMet. In these protocols, the cells were seeded as above into 96-well plates and infected with 4×10^5 pfu of rAd-MET or control rAd. After 24 hours, serial dilutions of SeMet were added and three (3) days later cytotoxicity was evaluated with the MTT assay as described in Example 2. […]

The test system of a further data set is keratinocytes. The following applies: at the concentrations studied; cited from earlier work.
For data set [3], the system named is A549 cells. Put plainly: ROS generation, lucigenin-dependent chemiluminescence. The note with it: for chemiluminescence relative to control: 30 minutes. In kind it is cell-based, human. As to the method: It is believed that selenium cytotoxicity is mediated by generation of reactive oxygen species (ROS). This can be measured by standard techniques which employ lucigenin-dependent chemiluminescence as described by Yan, L., et al., Biochem Pharmacol (1993) 45:429-437, cited above.
A549 cells were transduced with rAd-MET at MOI of 50, 24 hours before measurement. The cells (1×10^6) were incubated in 1 ml RPMI in the presence of SeMet with or without 10 units of superoxide dismutase (SOD) for 30 minutes. Lucigenin (50 μg) was added to the cell suspension just prior to measurement and integrated chemiluminescence was measured for 10 seconds, three times, using a TD21 luminometer (Turner Designs).

The next data set concerns OVCAR-8. Put plainly: MTT assay, serial dilutions of SeMet on transduced cells. It counts as cell-based, human. The following applies: for IC50: Homo sapiens. As to the method:
as §1
(§2) The cell lines were also evaluated for their response to varying concentrations of SeMet. In these protocols, the cells were seeded as above into 96-well plates and infected with 4×10^5 pfu of rAd-MET or control rAd. After 24 hours, serial dilutions of SeMet were added and three (3) days later cytotoxicity was evaluated with the MTT assay as described in Example 2. The results are shown for OVCAR-8 cells in FIG. 6.
In general terms: Tetrazolium assays rely on reduction of a dye to a coloured formazan, in cell work by metabolically active cells.

A further data set has as its system Hep-2. The data set is described as above. It counts as cell-based. The note with it: Homo sapiens. As to the method: as §1, §2
The next data set deals with MIA PaCa-2. The data set is described as above. It counts as cell-based. The following applies: Homo sapiens. As to the method:
as §1, §2

The subject of another data set is EKVX. The description is as above. It counts as cell-based. The following applies: Homo sapiens. As to the method:
as §1, §2

For a further data set, the system named is A549. Described as above. The note with it: Homo sapiens. It counts as cell-based. As to the method: as §1, §2
Another data set relates to BxPC-3. The data set is described as above. It counts as cell-based. The following applies: Homo sapiens. As to the method:
as §1, §2

Data set [4] has as its system A549 cells. In words: Combined effect of SeMet with doxorubicin, cell survival. It counts as cell-based, human. The following applies: A549 transfected with rAd-MET, 10% FBS. As to the method: In a similar experiment, A549 cells that had been transfected with rAd-MET were cultured in RPMI with 10% FBS in the presence and absence of 4 μM SeMet and with and without 0.4 μM doxorubicin. In the presence of doxorubicin alone, a 75% cell survival rate was obtained; when SeMet was present alone, a 60% cell survival rate was obtained.

Read-outs that look alike come from different tables or passages of the source.

The IC50 is the concentration at which inhibition is half-maximal.

Turning to `C[Se]CC[C@H](N)C(=O)O` [SeMet, selenomethionine], in data set [1] (A549, control vector, SeMet 20-40 μM, FIG. 7), the “toxicity of selenomethionine itself” value is listed as “slight toxicity”. In data set [1] (A549, rAd-MET 4×10^5, SeMet 2.5 μM), the cells survived was determined as 50%. Moreover, the cell survival result in data set [1] (A549, rAd-MET 8×10^5 pfu, SeMet 5 μM or more) is “substantially no cells survived”; in the data set with A549 cells [2] (8 μM SeMet alone) it was 80%. In addition, in data set [1] (A549, rAd-MET 5,000 pfu, SeMet 20-40 μM, FIG. 8), the viability result is “drastically reduced viability”. Also, in the data set on human tumor cell lines, the “change in IC50 for SeMet in the presence of rAd-MET” value is “dramatic decrease in IC50”. Further, in the data set with keratinocytes, the cytotoxicity in keratinocytes result was “not cytotoxic”. The “induction of apoptosis in keratinocytes” value in the data set on keratinocytes is reported as “did not induce cellular apoptosis”. The “effect of superoxide dismutase on SeMet-dependent chemiluminescence” value in the data set with A549 cells [3] (10 units SOD, 160 μM and 40 μM SeMet) is reported as “inhibited by SOD”. Further, the “chemiluminescence relative to control” value with A549 cells [3] (A549 transduced with rAd-MET MOI 50, 40 μM SeMet) is 20 times; in the data set with A549 cells [3] (A549 transduced with rAd-MET MOI 50, 160 μM SeMet) it was “over 100 times”. Further, the IC50 in the data set with OVCAR-8 (OVCAR-8, read-out: SeMet IC50 (μM)) came out at 224 µM; in the data set with OVCAR-8 (OVCAR-8, read-out: SeMet IC50 (μM), OVCAR-8 transduced with Control-rAd 4×10^5 pfu), 170 µM; with OVCAR-8 (OVCAR-8, read-out: SeMet IC50 (μM), OVCAR-8 transduced with rAd-MET 4×10^5 pfu) it was 0.59 µM; in the data set on Hep-2 (HEp-2, read-out: SeMet IC50 (μM)), 411 µM; in the data set with Hep-2 (HEp-2, read-out: SeMet IC50 (μM), Hep-2 transduced with Control-rAd 4×10^5 pfu), 387 µM; in the data set with Hep-2 (HEp-2, read-out: SeMet IC50 (μM), Hep-2 transduced with rAd-MET 4×10^5 pfu), 1.66 µM. The IC50 with MIA PaCa-2 (MIA PaCa-2, read-out: SeMet IC50 (μM)) came out at 422 µM; in the data set on MIA PaCa-2 (MIA PaCa-2, read-out: SeMet IC50 (μM), MIA PaCa-2 transduced with Control-rAd 4×10^5 pfu), 338 µM; in the data set with MIA PaCa-2 (MIA PaCa-2, read-out: SeMet IC50 (μM), MIA PaCa-2 transduced with rAd-MET 4×10^5 pfu), 3.86 µM; in the data set with EKVX (read-out: SeMet IC50 (μM)), 1360 µM; with EKVX (read-out: SeMet IC50 (μM), EKVX transduced with Control-rAd 4×10^5 pfu) it was 686 µM; in the data set on EKVX (read-out: SeMet IC50 (μM), EKVX transduced with rAd-MET 4×10^5 pfu), 1.66 µM. Moreover, the IC50 with A549 (A549, read-out: SeMet IC50 (μM)) amounted to 486 µM; with A549 (A549, read-out: SeMet IC50 (μM), A549 transduced with Control-rAd 4×10^5 pfu), 327 µM; in the data set with A549 (A549, read-out: SeMet IC50 (μM), A549 transduced with rAd-MET 4×10^5 pfu), 0.5 µM; in the data set on BxPC-3 (BXPC-3, read-out: SeMet IC50 (μM)), 312 µM; in the data set on BxPC-3 (BXPC-3, read-out: SeMet IC50 (μM), BxPC-3 transduced with Control-rAd 4×10^5 pfu) it was 223 µM; with BxPC-3 (BXPC-3, read-out: SeMet IC50 (μM), BxPC-3 transduced with rAd-MET 4×10^5 pfu), 3.38 µM. For the same compound, the “lowering of IC50 for SeMet in the presence of rAd-MET as compared to control rAd” value in the data set on OVCAR-8 (OVCAR-8 cells, FIG. 6) is recorded as “lowered over a thousandfold”. For the same compound, the cell survival rate in the data set on A549 cells [4] (4 μM SeMet alone) was 60%.

`NCC[Se][Se]CCN` [selenocystamine]: in the data set with keratinocytes, the cytotoxicity in keratinocytes result was “cytotoxic” and the “induction of apoptosis in keratinocytes” value is on record as “induced apoptosis”.

For the compound `COc1cccc2c1C(=O)c1c(O)c3c(c(O)c1C2=O)C[C@@](O)(C(=O)CO)C[C@@H]3O[C@H]1C[C@H](N)[C@H](O)[C@H](C)O1` [doxorubicin, reference compound], the cell survival rate in the data set on A549 cells [4] (0.4 μM doxorubicin alone) is reported as 75%.

As for `O=[Se](O)O` [selenite], in the data set on keratinocytes, the cytotoxicity in keratinocytes result is given as “cytotoxic” and the “induction of apoptosis in keratinocytes” value is “induced apoptosis”.

For the compound `N[C@@H](C[Se][Se]C[C@H](N)C(=O)O)C(=O)O` [selenocystine], in the data set on keratinocytes, the cytotoxicity in keratinocytes result is listed as “cytotoxic” and the “induction of apoptosis in keratinocytes” value is “induced apoptosis”.

`O=NN(CCCl)C(=O)NCCCl` [BCNU, reference compound]: in the data set with A549 cells [2] (300 μM BCNU, no SeMet), the cell survival is on record as 55%.

These data come from patent US6916793B2, “Selenium-containing pro-drugs for cancer therapy” (priority 1999, dated 2005).
